Earlier results, collected in US12648940B2, “Bupivacaine liquid formulations” (FRESENIUS KABI AUSTRIA GMBH, priority 2023, dated 2026).

- pKa: approximately 8.1
- pKa of the amine of the piperidine group (at 25° C.): ~8.1
SMILES: CCCCN1CCCCC1C(=O)Nc1c(C)cccc1C (centres unmarked) [Bupivacaine, 1-butyl-N-(2,6-dimethylphenyl)piperidine-2-carboxamide]
